Laboratory results published in patent US20090270495A1, “Inhibitors of Phosphodiesterase Types 1 To 5 Based on Dioclein, Floranol, and Analogs Thereof” (priority 2005, published 2009).
Several values for one entry are separate records, joined by “and”; a condition that tells them apart may be missing. Identical values can stand only once. Entries after “also recorded” stand apart in the source; their conditions may differ. Like-named read-outs stand apart in the source and are kept apart here.

How the values were obtained:
[1] = tested on: human saphenous vein; assay: Vasodilating effect on human saphenous vein pre-contracted with phenylephrine; settings: for IC50: phenylephrine 3×10^−6M
Experimental: FIG. 2 represent the vasodilating effect of dioclein in the human saphenous vein, pre-contracted with phenylephrine (3×10^−6M) in the presence or absence of functional endothelium. The relaxation data represent the percentage of reduction of the contraction by phenylephrine in response to dioclein and have been expressed on average±SEM. *P<0.05 (two-way ANOVA with post-test comparison BONFERRONI. The vessels of 8 patients with and 8 without functional endothelium were analyzed.
The data represent the percentage of reduction of the contraction by phenylephrine in response to dioclein and have been expressed average±SEM. *P<0.05. ***P<0.001 (two-way ANOVA with post-test comparison BONFERRONI). One has analyzed 8 vessels of the control group, 5 vessels of the group incubated with H-89.
FIG. 4 illustrates the effect of Rp-8-pCPT cGMPS (10 μM) on the relaxation induced by dioclein on the human saphenous vein without functional endothelium, pre-contracted with phenylephrine (3×10^−6M). The data represent the percentage of reduction of the contraction with phenylephrine in response to dioclein and have been expressed in average±SEM. ***P<0.001 (two-way ANOVA with post-test comparison of BONFERRONI). One has analyzed 8 vessels of the control group and 5 vessels of the group incubated with Rp-8-pCPT cGMPS.
The data represent the percentage of reduction of the contraction with phenylephrine in response to dioclein and have been expressed in average±SEM. One has analyzed 8 vessels of the dioclein group, 7 vessels of the 8-MM-IBMX group and 9 vessels of the vinpocetine group.
FIG. 2 illustrates the effect of the flavonoids of the present invention on the human saphenous vein. […] FIG. 3 illustrates the effect of dioclein on the human saphenous vein without functional endothelium, in the absence and in the presence of an inhibitor selective of protein Kinase A, which is the intracellular receptor of AMPc.

[2] = tested on: PDE1; settings: cited from earlier work
[3] = target: PDE5 (Homo sapiens, UniProt O76074); settings: cited from earlier work
[4] = tested on: PDE1; assay: PDE1 inhibition, enzyme isolated from smooth muscle of ox aorta; format: biochemical; settings: PDE1 versus PDE2-PDE5
[5] = tested on: T1, PDE1; assay: as above; format: biochemical
T1 construct: IC50 PDE1 − calmodulin; other: without calmodulin; Ki PDE1 − calmodulin; other: with calmodulin; Ki PDE1 + calmodulin; other: versus literature value of 8-MM-IBMX; times more pot

[6] = target: T2, PDE2 (Homo sapiens, UniProt O00408); assay: PDE2 inhibition, enzyme isolated from human platelets; format: biochemical
T2 construct: on the PDE2 isolated from human platelets; from tissue; host or cells: human platelets

[7] = tested on: PDE4; assay: PDE4 inhibition, enzyme isolated from smooth muscle of ox aorta; format: biochemical
[8] = target: T3, PDE5 (Bos taurus, UniProt Q28156); assay: PDE5 inhibition, enzyme isolated from smooth muscle of ox aorta; format: biochemical
T3 construct: isolated from the smooth muscle of ox aorta; from tissue; host or cells: smooth muscle of ox aorta

[9] = tested on: arterial pressure of mice; assay: Hypotensor effect on arterial pressure of mice; format: in vivo; settings: dissolved with DMSO
Experimental: FIG. 7 is a representative example of the effect of dioclein (2.5 mg/kg) and of the inclusion product of dioclein in cyclodextrin (inclusion: 2.5 mg/kg), applied by intraperitoneal route, on the arterial pressure of mice. In the highlight we can see the average±SEM of the maximum effect achieved on 6 different mice. In these experiments dioclein and the inclusion product of dioclein in the cyclodextrin were dissolved with the aid of DMSO.
FIG. 8 is a representative example of the effect of dioclein (10 mg/kg) and of the inclusion product of dioclein in cyclodextrin (inclusion: 10 mg/kg), applied by oral route, on the arterial pressure of mice. In the highlight one can see the average±SEM of maximum effect achieve in 3 different mice. In this experiments dioclein and the inclusion product of dioclein in cyclodextrin were dissolved with the aid of DMSO.
FIG. 9 is a representative example of the effect of the inclusion product of dioclein in cyclodextrin (inclusion; 10 mg/kg), solubilized in water, applied by oral route, on the arterial pressure of mice.
FIG. 7 illustrates the effect of dioclein and of dioclein included in cyclodextrin, dissolved with the aid of DMSO on the arterial pressure of mice. […] FIG. 8 illustrates the effect of dioclein and of dioclein included in cyclodextrin dissolved with the aid of DMSO on the arterial pressure of mice when applied by oral route (gavage). […]

[10] = Solubility; format: physicochemical
[11] = target: T4, PDE3 (Bos taurus, UniProt A0A3Q1M1E8); assay: PDE3 inhibition, enzyme isolated from smooth muscle of ox aorta; format: biochemical
T4 sequence (A0A3Q1M1E8 1-1126): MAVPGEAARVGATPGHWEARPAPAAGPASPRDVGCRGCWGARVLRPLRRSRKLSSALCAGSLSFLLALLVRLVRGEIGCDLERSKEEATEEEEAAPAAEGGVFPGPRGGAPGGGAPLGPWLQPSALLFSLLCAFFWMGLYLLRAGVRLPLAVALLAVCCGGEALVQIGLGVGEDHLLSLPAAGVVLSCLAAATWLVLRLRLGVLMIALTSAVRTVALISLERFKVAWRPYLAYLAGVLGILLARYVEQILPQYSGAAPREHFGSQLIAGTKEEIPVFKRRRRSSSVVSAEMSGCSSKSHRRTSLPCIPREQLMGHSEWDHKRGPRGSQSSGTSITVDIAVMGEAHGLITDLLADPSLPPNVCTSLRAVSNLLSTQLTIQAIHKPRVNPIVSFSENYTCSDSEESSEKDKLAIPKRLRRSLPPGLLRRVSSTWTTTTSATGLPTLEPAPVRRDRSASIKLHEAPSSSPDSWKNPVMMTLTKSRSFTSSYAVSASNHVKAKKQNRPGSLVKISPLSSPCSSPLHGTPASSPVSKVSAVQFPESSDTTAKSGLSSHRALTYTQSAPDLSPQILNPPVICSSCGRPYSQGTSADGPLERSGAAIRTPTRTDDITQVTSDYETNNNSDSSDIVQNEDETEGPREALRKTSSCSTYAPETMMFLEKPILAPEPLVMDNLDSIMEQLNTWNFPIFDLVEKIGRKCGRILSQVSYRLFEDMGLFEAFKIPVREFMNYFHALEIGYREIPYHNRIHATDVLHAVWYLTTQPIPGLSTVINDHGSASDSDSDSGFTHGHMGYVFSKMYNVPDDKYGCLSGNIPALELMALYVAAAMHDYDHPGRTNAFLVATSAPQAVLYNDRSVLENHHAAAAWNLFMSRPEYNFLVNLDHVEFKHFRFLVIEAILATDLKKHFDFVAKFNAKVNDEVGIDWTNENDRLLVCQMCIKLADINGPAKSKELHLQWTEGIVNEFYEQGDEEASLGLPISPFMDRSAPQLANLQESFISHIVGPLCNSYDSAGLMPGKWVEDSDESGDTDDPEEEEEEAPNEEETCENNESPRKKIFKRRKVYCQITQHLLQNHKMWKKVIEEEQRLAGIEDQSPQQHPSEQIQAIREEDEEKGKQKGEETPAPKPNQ

[12] = tested on: PDE1 of bovine tissue; settings: cited from earlier work
[13] = target: PDE7 (Homo sapiens, UniProt Q9NP56); settings: at the same concentrations (higher than 30 μM); cited from earlier work
[14] = target: potassium channels of the type sensitive to high-conductance calcium (Homo sapiens, UniProt Q12791); settings: cited from earlier work
[15] = without functional endothelium, read-out: Cl50 of vasodilating effect, absence of functional endothelium
[16] = without calmodulin, read-out: IC50 PDE1 − calmodulin
[17] = activated, +GMPc, read-out: IC50 Activated PDE2 (+GMPc)
[18] = basal, read-out: IC50 Basal PDE2

T2 sequence (O00408 whole entry): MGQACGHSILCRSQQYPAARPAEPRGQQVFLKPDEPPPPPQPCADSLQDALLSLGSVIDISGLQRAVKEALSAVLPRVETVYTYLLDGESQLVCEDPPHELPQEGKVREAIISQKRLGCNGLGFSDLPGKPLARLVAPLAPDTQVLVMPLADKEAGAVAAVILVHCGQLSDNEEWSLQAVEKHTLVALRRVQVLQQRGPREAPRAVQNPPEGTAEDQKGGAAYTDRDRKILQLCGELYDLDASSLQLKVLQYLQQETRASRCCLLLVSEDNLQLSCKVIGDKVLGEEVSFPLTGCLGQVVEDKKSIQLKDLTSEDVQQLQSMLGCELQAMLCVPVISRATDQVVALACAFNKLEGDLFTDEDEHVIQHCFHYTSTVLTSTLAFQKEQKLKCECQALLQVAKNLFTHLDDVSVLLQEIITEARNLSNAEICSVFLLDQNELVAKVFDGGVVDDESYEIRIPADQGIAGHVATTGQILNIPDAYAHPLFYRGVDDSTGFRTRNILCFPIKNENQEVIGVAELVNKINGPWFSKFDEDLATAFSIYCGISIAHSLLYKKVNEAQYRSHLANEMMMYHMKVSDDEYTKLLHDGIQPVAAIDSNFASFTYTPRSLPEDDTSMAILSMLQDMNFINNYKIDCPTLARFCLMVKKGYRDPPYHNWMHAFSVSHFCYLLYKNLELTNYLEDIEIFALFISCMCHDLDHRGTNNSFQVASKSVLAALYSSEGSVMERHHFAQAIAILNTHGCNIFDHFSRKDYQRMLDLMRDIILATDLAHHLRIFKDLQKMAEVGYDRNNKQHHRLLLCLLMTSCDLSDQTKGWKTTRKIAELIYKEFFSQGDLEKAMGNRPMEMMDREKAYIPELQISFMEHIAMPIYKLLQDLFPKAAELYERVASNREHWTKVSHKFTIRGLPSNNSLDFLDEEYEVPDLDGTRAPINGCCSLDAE
potassium channels of the type sensitive to high-conductance calcium, sequence (Q12791 whole entry): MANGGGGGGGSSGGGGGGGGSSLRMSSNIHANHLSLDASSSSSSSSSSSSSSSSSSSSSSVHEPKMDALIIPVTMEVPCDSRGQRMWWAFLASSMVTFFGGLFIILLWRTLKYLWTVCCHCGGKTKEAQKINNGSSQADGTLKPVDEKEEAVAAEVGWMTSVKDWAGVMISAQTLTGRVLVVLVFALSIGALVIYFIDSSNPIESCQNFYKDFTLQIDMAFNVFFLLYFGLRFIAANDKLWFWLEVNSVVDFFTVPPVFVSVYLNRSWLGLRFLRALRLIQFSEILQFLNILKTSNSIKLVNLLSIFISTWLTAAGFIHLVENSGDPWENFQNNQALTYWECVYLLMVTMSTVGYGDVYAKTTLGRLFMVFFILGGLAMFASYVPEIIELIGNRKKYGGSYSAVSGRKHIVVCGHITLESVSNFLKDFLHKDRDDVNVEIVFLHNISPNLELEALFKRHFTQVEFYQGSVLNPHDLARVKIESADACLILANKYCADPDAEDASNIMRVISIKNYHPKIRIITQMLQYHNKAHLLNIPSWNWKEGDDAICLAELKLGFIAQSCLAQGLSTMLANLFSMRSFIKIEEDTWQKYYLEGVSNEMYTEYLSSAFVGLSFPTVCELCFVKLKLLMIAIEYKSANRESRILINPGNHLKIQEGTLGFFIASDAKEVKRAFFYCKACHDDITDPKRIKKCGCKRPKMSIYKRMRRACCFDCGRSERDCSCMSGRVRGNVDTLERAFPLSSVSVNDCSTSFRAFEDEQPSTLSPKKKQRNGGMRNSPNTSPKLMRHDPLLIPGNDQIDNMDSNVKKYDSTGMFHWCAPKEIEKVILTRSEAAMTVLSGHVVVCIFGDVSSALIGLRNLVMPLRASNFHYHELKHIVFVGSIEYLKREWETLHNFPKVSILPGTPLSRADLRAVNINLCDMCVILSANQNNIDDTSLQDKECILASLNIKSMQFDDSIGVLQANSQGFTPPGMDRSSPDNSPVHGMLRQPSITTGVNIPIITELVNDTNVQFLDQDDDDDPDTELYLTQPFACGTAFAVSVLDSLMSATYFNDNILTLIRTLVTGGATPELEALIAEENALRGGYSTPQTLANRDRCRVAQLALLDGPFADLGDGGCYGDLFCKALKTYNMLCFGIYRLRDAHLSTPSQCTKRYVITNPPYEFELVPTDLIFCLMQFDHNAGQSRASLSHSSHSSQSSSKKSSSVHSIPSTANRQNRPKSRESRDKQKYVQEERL
PDE7, sequence (Q9NP56 whole entry): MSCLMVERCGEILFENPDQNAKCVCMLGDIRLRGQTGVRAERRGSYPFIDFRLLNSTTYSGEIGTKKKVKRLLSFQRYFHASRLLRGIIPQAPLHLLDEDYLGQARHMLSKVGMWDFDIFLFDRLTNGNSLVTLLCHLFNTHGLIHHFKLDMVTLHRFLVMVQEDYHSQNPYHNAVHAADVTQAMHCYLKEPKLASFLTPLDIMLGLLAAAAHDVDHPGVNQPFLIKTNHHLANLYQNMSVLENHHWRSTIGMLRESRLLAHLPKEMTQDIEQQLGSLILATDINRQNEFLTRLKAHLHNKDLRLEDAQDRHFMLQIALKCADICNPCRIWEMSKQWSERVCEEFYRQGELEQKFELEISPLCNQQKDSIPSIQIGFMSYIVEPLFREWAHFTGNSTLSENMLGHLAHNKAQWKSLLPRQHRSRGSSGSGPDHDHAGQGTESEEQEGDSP

In the case of COCc1nc2c([nH]1)c(=O)n(C)c(=O)n2CC(C)C [8-MM-IBMX, 8-methoxymethyl-IBMX], the IC50 [1, 15] is given as 30.9 ± 16 µM, the IC50 [2] is given as 8 µM and the IC50 [3] is given as 10 µM.

For COc1cc2c(c(O)c1OC)C(=O)CC(c1cc(O)ccc1O)O2 (stereo not shown) [Dioclein, 5, 2′,5′-trihydroxy-6,7-dimethoxyflavanone], the “selectivity: PDE1 inhibited at concentrations times smaller than for PDE2, PDE3, PDE4 and PDE5” value [4] was 20 to 100 times and 20-100 times, the IC50 ([5]; calmodulin state not stated in text, listed as dioclein, read-out: IC50 of inhibitory effect on PDE1 (running text)) was 1440 ± 350 nM and the IC50 ([5]; calmodulin state not stated in text, read-out: IC50 of inhibitory effect on PDE1 (running text)) was 1400 nM. The “times more potent than 8-MM-IBMX (PDE1)” value ([5]; versus literature value of 8-MM-IBMX) was 8 times, the “times more potent than vinpocetine (PDE1)” value ([5]; versus literature value of vinpocetine) was “about 30 times” and the Ki ([5]; with calmodulin) was 590 nM. For the same compound, the Ki ([5]; without calmodulin) was 620 nM, the IC50 [5, 16] was 2470 ± 260 nM and the IC50 [6, 17] was 38.2 ± 8.92 µM. It also gave an IC50 [6, 18] of 100 ± 0.5 µM, an IC50 [7] of 16.8 ± 1.42 µM and an IC50 [8] of 23 ± 5.5 µM. For the same compound, the IC50 ([1]; Homo sapiens, with functional endothelium, read-out: Cl50 of vasodilating effect, presence of functional endothelium) was 3 ± 0.2 µM, the IC50 ([1]; Homo sapiens, without functional endothelium, read-out: Cl50 of vasodilating effect, absence of functional endothelium) was 11 ± 0.4 µM and the “vasodilating effect in the presence of H-89 (protein kinase A inhibitor)” value ([1]; without functional endothelium, H-89 1 μM) was “displaced to the right”. The IC50 [1, 15] was 11.1 ± 2.7 µM, the “effect on arterial pressure, intraperitoneal route” value ([9]; 2.5 mg/kg i.p.) was “reduced the arterial pressure of mice” and the “effect on arterial pressure, oral route (gavage), DMSO” value ([9]; 10 mg/kg oral) was “not active via oral route”. For the same compound, the “solubility in DMSO and methanol” value ([10]; DMSO, methanol) was “soluble in DMSO and methanol” and the solubility in water ([10]; water) was “insolubility in water; also recorded: low solubility in water; also recorded: very low solubility in water”.

COc1c(O)c(CC=C(C)C)c2c(c1O)C(=O)[C@H](O)[C@@H](c1ccccc1O)O2 [Floranol] gave an IC50 ([5]; with calmodulin, read-out: IC50 PDE1 + calmodulin) of 3060 ± 140 nM, an IC50 [5, 16] of 2750 ± 200 nM and an IC50 [6, 17] of 65.3 ± 6.87 µM. The IC50 [6, 18] was 26.8 ± 4.62 µM, the IC50 [11] was 47.1 ± 5.25 µM and the IC50 [7] was 11 ± 2.31 µM. The IC50 [8] was 7.14 µM.

For CCOC(=O)C1=C[C@]2(CC)CCCN3CCc4c(n1c1ccccc41)[C@@H]32 [Vinpocetine], the maximum vasodilating effect ([1]; without functional endothelium) is listed as 30%, the “concentrations showing inhibitory effect on PDE1” value [12] is listed as “higher than 30 μM” and the PDE7 inhibition [13] is listed as “inhibits PDE7”. The “direct activation of potassium channels” value [14] was “capable of directly activating potassium channels”.
